Data taken from paper PMC8344233, “Anticancer activity and toxicity of new quaternary ammonium geldanamycin derivative salts and their mixtures with potentiators” (Journal of Enzyme Inhibition and Medicinal Chemistry, 2021).
≈ marks a conversion by molar mass, not a printed value.

What was measured:
MCF-7 = assay: MTT cytotoxicity assay, MCF-7 (1st panel); type: cell-based, human; conditions: for IC50: ± SD, MTT, 72 h; for selectivity index SI (MCF-7): IC50 normal cell line CCD39Lu/IC50 MCF-7
Experimental: (§1) Cell survival was measured as the percentage absorbance compared to the control (nontreated cells). […]
(§2) SI indexes were calculated from equation SI = IC50 normal cell line HDF/IC50 respective cancerous cell line (Table 2). A beneficial SI > 1.0 indicates a compound with efficacy against tumor cell greater than the toxicity against normal cells.
(§3) All experiments were carried out with human breast adenocarcinoma (MDA-MB-231 and MCF-7), hepatocellular carcinoma (HepG2), human cervical adenocarcinoma (HeLa) cancer cell lines, and human normal lung fibroblast (CCD39Lu) cell line. The cell line was purchased from the European Collection of Cells Cultures (ECACC, Salisbury, UK), and cultured in DMEM with phenol red supplemented with 10% (v/v) FBS, 1% (v/v) penicillin/streptomycin, and 1% (v/v) L-glutamine at 37 °C, in a humidified atmosphere containing 5% CO2.
(§4) The tested compounds were dissolved in DMSO to the final concentration 10 mM and stored […]
(§5) The cytotoxic effect of the tested compounds was determined by MTT assay. MDA-MB-231, MCF-7, HepG2, HeLa, and CCD39Lu cells were seeded in 96 wells plates at density 2x10^4 cells/well and incubated overnight under cell culture condition. Next, cells were treated with tested compounds at concentrations of 10 µM; 5 µM; 2.5 µM; 1.2 µM; 0.6 µM; 0.3 µM; 0.15 […]
(§6) µM. Moreover, GDM (for MCF-7) and 8 (for MCF-7 and MDA-MB-231) due to high cytotoxicity, were additionally tested at a lower concentration range of 2.5 µM; 1.2 µM; 0.6 µM; 0.3 µM; 0.15µM; 0.07 µM; 0.03 µM. DMSO was used as a control, and the concentration […]
(§7) Tested compounds were added to cells in the medium without phenol red. Cells were incubated 72 h at 37 °C in a humidified atmosphere containing 5% CO2.
(§8) Then, the medium was aspirated and MTT solution at a concentration of 0.59 mg/mL in cell culture medium was added to each well. Plates were incubated for 1.5 hours at 37 °C, and then plates were centrifuged for 3 minutes. The formazan crystals were dissolved in 200 µl DMSO and plates were agitated on a plate shaker at 300 –500 rpm for 10 minutes. Absorbance at 570 nm was measured using a plate reader (Biotek Instruments, Elx -800). Data were normalized to the mean absorption of control cells. All experiments were performed at least three times. […]

HeLa = assay: MTT cytotoxicity assay, HeLa (1st panel); type: cell-based, human; conditions: for IC50: Homo sapiens, HeLa, ± SD, MTT, 72 h; for selectivity index SI (HeLa): IC50 normal cell line CCD39Lu/IC50 HeLa
Experimental: as §1, §2, §3, §4, §5, §6, §7, §8

MDA-MB-231 = assay: MTT cytotoxicity assay, MDA-MB-231 (1st panel); type: cell-based, human; conditions: for IC50: Homo sapiens, MDA-MB-231, ± SD, MTT, 72 h; for selectivity index SI (MDA-MB-231): IC50 normal cell line CCD39Lu/IC50 MDA-MB-231
Experimental: as §1, §2, §3, §4, §5, §6, §7, §8

U-87 = assay: SRB cytotoxicity assay, U-87 (2nd panel); type: cell-based, human; conditions: for IC50: Homo sapiens, U-87 MG, ± SD, SRB, 72 h; for selectivity index SIHDF (U-87): IC50 normal cell line HDF/IC50 U-87
Experimental: U-87MG cells (glioblastoma cell line) were cultured in Eagle’s Minimal Essential Medium. Human Dermal Fibroblasts cell line (HDF) was cultured in Fibroblast Basal Medium.
(§9) Each medium was supplemented with 10% fetal bovine serum, 1% L-glutamine, and 1% penicillin/streptomycin solution. The cell lines were kept in the incubator at 37◦C. The optimal plating density of cell lines was determined to be 5 × 104. All the cell lines and mediums were obtained from American Type Culture Collection (ATCC) supplied by LGC-Standards. The protein-staining SRB (Sigma-Aldrich) microculture colorimetric assay, developed by the National Cancer Institute (USA) for in vitro antitumor screening was used in this study, to estimate the cell number by providing a sensitive index of total cellular protein content, being linear to cell density. The monolayer cell culture was trypsinized and the cell count was adjusted to 5 × 10^4 cells. To each well of the 96 well microtiter plate, 0.1 mL of the diluted cell suspension (approximately […]) was added. After 24 hours, when a partial monolayer was formed, the supernatant was washed out and 100 μL of six different compound concentrations (0.1, 0.2, 1, 2, 10, and 20 μM) were added to the cells in microtitre plates. The tested compounds were dissolved in DMSO (containing 10 % of water) (100 μL) and the […]
(§10) lines. The cells were exposed to compounds for 72 hours at 37 °C in a humidified atmosphere (90% RH) containing 5% CO2. After that, 25 μL of 50 % trichloroacetic acid was added to the wells and the plates were incubated for 1 hour at 4◦C. The plates were then washed out with the distilled water to remove traces of medium and next dried by the air. The air-dried plates were stained with 100 μL of 0.4% sulforhodamine B (prepared in 1 % acetic acid) and kept for 30 minutes at room temperature. The unbound dye was removed by rapidly washing with 1% […]
(§11) acetic acid and then air dried overnight. The protein-bound dye was dissolved in 100 μL of 10 mM unbuffered Tris base (pH 10.5) for optical density determination at 490 nm. All cytotoxicity experiments were performed three times. Cell survival was measured as the percentage absorbance compared to the control (nontreated cells). Cytarabine (ara-C) and GDM were used as the internal standards. Additionally biological assays were performed in Human Dermal Fibroblasts cell line (HDF) in aim to evaluate cytotoxicity of GDM and its 1-13 analogs in healthy cells. SI indexes were calculated from equation SI = IC50 normal cell line HDF/IC50 respective cancerous cell line (Table 2). A beneficial SI > 1.0 indicates a compound with efficacy against tumor cell greater than the toxicity against normal cells. […]

physchem = conditions: water, Solubility SH2O
A-549 = assay: SRB cytotoxicity assay, A-549 (2nd panel); type: cell-based, human; conditions: for IC50: Homo sapiens, A549, ± SD, SRB, 72 h; for selectivity index SIHDF (A-549): IC50 normal cell line HDF/IC50 A-549
Experimental: (§12) Medium. Human Dermal Fibroblasts cell line (HDF) was cultured in Fibroblast Basal Medium.
as §9, §10, §11

PC-3 = assay: SRB cytotoxicity assay, PC-3 (2nd panel); type: cell-based, human; conditions: for IC50: Homo sapiens, PC-3, ± SD, SRB, 72 h, mixtures equimolar 1:1; for selectivity index SIHDF (PC-3): IC50 normal cell line HDF/IC50 PC-3
Experimental: as §12, §9, §10, §11

CO[C@H]1/C=C\C=C(/C)C(=O)NC2=CC(=O)C(NC3C[N+]4(C/C=C/c5ccccc5)CCC3CC4)=C(C[C@@H](C)C[C@H](OC)[C@H](O)[C@@H](C)/C=C(\C)[C@@H]1OC(N)=O)C2=O (stereo partly drawn) [Compound 13]
IC50 (MCF-7; Homo sapiens, MCF7, 72 h): 2310 ± 970 nM | selectivity index SI (MCF-7) (MCF-7): > 4.33 | IC50 (HeLa): 8140 ± 640 nM | selectivity index SI (HeLa) (HeLa): > 1.23 | IC50 (MDA-MB-231): 4660 ± 2490 nM | selectivity index SI (MDA-MB-231) (MDA-MB-231): > 2.15 | IC50 (U-87): 2260 ± 150 nM | selectivity index SIHDF (U-87) (U-87): 1.67 | solubility (physchem): > 5000 µg/mL | IC50 (A-549): 2060 ± 10 nM | selectivity index SIHDF (A-549) (A-549): 1.85 | IC50 (PC-3): 2050 ± 90 nM | selectivity index SIHDF (PC-3) (PC-3): 1.86

C/C=C/C[N+]12CCC(CC1)C(NC1=C3C[C@@H](C)C[C@H](OC)[C@H](O)[C@@H](C)/C=C(\C)[C@H](OC(N)=O)[C@@H](OC)/C=C\C=C(/C)C(=O)NC(=CC1=O)C3=O)C2 (stereo partly drawn) [Compound 10]
IC50 (MCF-7; Homo sapiens, MCF7, 72 h): 2510 ± 1030 nM | selectivity index SI (MCF-7) (MCF-7): > 3.98 | IC50 (HeLa): 7430 ± 3210 nM | selectivity index SI (HeLa) (HeLa): > 1.35 | IC50 (MDA-MB-231): 4640 ± 1510 nM | selectivity index SI (MDA-MB-231) (MDA-MB-231): > 2.16 | IC50 (U-87): 1840 ± 110 nM | selectivity index SIHDF (U-87) (U-87): 1.61 | solubility (physchem): > 5000 µg/mL | IC50 (A-549): 1290 ± 70 nM | selectivity index SIHDF (A-549) (A-549): 2.29 | IC50 (PC-3): 1880 ± 20 nM | selectivity index SIHDF (PC-3) (PC-3): 1.57

CO[C@H]1/C=C\C=C(/C)C(=O)NC2=CC(=O)C(NC3CCC3)=C(C[C@@H](C)C[C@H](OC)[C@H](O)[C@@H](C)/C=C(\C)[C@@H]1OC(N)=O)C2=O [Compound 1]
IC50 (MCF-7; Homo sapiens, MCF7, 72 h): ~100 nM | selectivity index SI (MCF-7) (MCF-7): > 76.92 | IC50 (MCF-7): 130 ± 10 nM | IC50 (HeLa): 1670 ± 540 nM | selectivity index SI (HeLa) (HeLa): > 5.99 | IC50 (MDA-MB-231): 2450 ± 780 nM | selectivity index SI (MDA-MB-231) (MDA-MB-231): > 4.08 | IC50 (U-87): 7320 ± 490 nM | selectivity index SIHDF (U-87) (U-87): 4.10 | IC50 (A-549): 9010 ± 630 nM | selectivity index SIHDF (A-549) (A-549): 3.33 | IC50 (PC-3): 7020 ± 60 nM | selectivity index SIHDF (PC-3) (PC-3): 4.28

CO[C@H]1/C=C\C=C(/C)C(=O)NC2=CC(=O)C(NC3CN4CCC3CC4)=C(C[C@@H](C)C[C@H](OC)[C@H](O)[C@@H](C)/C=C(\C)[C@@H]1OC(N)=O)C2=O (stereo partly drawn) [Compound 8]
IC50 (MCF-7; Homo sapiens, MCF7, 72 h): ~100 nM | selectivity index SI (MCF-7) (MCF-7): 9.67 | IC50 (MCF-7): 90 ± 10 nM | IC50 (HeLa): 1060 ± 260 nM | selectivity index SI (HeLa) (HeLa): 0.82 | IC50 (MDA-MB-231): 140 ± 10 nM | selectivity index SI (MDA-MB-231) (MDA-MB-231): 6.21 | IC50 (U-87): 1080 ± 160 nM | solubility (physchem): 150 µg/mL (≈ 229 µM) | IC50 (A-549): 940 ± 30 nM | IC50 (PC-3): 1470 ± 310 nM | selectivity index SIHDF (PC-3) (PC-3): 2.19

C=CC[N+]12CCC(CC1)C(NC1=C3C[C@@H](C)C[C@H](OC)[C@H](O)[C@@H](C)/C=C(\C)[C@H](OC(N)=O)[C@@H](OC)/C=C\C=C(/C)C(=O)NC(=CC1=O)C3=O)C2 (stereo partly drawn) [Compound 9]
IC50 (MCF-7; Homo sapiens, MCF7, 72 h): 2340 ± 560 nM | selectivity index SI (MCF-7) (MCF-7): > 4.27 | IC50 (HeLa): 9250 ± 980 nM | selectivity index SI (HeLa) (HeLa): > 1.08 | IC50 (MDA-MB-231): 4650 ± 2650 nM | selectivity index SI (MDA-MB-231) (MDA-MB-231): > 2.15 | IC50 (U-87): 3690 ± 80 nM | selectivity index SIHDF (U-87) (U-87): 1.43 | IC50 (A-549): 3090 ± 10 nM | selectivity index SIHDF (A-549) (A-549): 1.71 | IC50 (PC-3): 3010 ± 110 nM | selectivity index SIHDF (PC-3) (PC-3): 1.76
